This note sets out measurements from patent US8853257B2, “Succinimide derivatives as ocular hypotensive agents” (priority 2005, dated 2014).

Several values for one entry are separate records, joined by “and”; a condition that tells them apart may be missing. Equal entries are not always repeated.

For series [1], the system named is Dark Agauti (DA) pigmented rats. Kind of series: Effect of topical ethosuximide on intraocular pressure in rats (Tono-Pen). The note with it: for IOP, treated eye (T), individual rats: one value per rat; for IOP, treated eye (T), Average X: rats. It counts as in vivo. As for the experimental part:
Preliminary ocular pharmacodynamic studies were conducted to study the effect of ethosuximide on the intraocular pressure in rats by measuring IOP before and after administration of ethosuximide. IOP measurements were taken by a tonopen instrument. Ethosuximide was applied as a viscous solution obtained from Petnidan® capsules (Desitin, Hamburg, Germany). A recent study at Alcon Research laboratory (Pang I H, Wang W H, Clark A F: Acute effects of glaucoma medications on rat intraocular pressure, Exp Eye Res 2005, February; 80(2)207-14) has shown rats to be a proper animal model for glaucoma study. Another study at the Casey Eye Institute (Moore C G, Milne S T, Morrison J C: Noninvasive measurements of rat intraocular pressure with the Tono-Pen. Invest. Opthalmol. Vis. Sci. 1993 February; 34(2)363-9) has shown that a tonopen can be used reliably to measure IOP in normal rat eye.
Six Dark Agauti (DA) pigmented rats, (250-300 g in weight) were slightly sedated with 1.5-2 mg (0.15-0.2 ml) of intraperitoneal xylazine. One eye of each rat was randomly selected to receive topical administration of 50 µl of 250 mg/0.2 ml ethosuximide solution (content of Petnidan capsules). The second (control) eye received 50 µl of viscoelastic solution without the active ingredient (Viscotears™ manufactured by Novartis, Switzerland). At t=0 (immediately before) and at 30, 60 and 120 minutes after administration, topical anesthetic benoxinate was applied to both eyes and the intraocular pressures (IOP) were measured by a Tono-Pen XL tonometer (Medtronics). IOP values were recorded as the mean value of 6-10 successive measurements to minimize variability. The code, namely which eye of a pair was treated, was unknown to the technician who performed the IOP measurements. One rat expired after 1 hour due to excessive sedation. Five rats completed the experiment. In 2 out of 6 eyes that received the drug (vs. 1 of 6 eyes that were administered viscoelastic vehicle) a mild to moderate limbal vascular congestion was noticed, which tended to subside at 60 minutes.
At the end of the experiment, the code was broken and the IOP values in control and treated eyes were compared by statistical analysis.

Series [2] deals with normo-tensive New Zealand White (NZW) rabbits. Kind of series: Effect of topical ethosuximide on intraocular pressure in rabbits (Tono-Pen). The note with it: for IOP, treated eye (T), individual rabbits: one value per rabbit. Format: in vivo. The method, then: Another study was conducted, in order to study the effect of ethosuximide on the intraocular pressure in rabbits by measuring IOP before and after administration of ethosuximide. IOP measurements were taken by a tonopen instrument. Ethosuximide was applied as a viscous solution obtained from Petnidan® capsules (Desitin, Hamburg, Germany).
Five fully awake, normo-tensive New Zealand White (NZW) rabbits, (each approximately 3.0 kg in weight) were used in this study. One eye of each rabbit was randomly selected to receive topical administration of 50 μl of 250 mg/0.2 ml ethosuximide solution (content of Petnidan capsules). The second (control) eye received 50 μl of viscoelastic solution without the active ingredient (Viscotears™ manufactured by Novartis, Switzerland). At t=0 (baseline, immediately before) and at 0.5, 1, 2, 4 and 6 hours after administration, topical anesthetic benoxinate was applied to both eyes and the intraocular pressures were measured by a Tono-Pen XL tonometer (Medtronics). IOP values were recorded as the mean value of 6-10 successive measurements to minimize variability. The code, namely which eye of a pair was treated, was (unknown to the technician who performed the IOP measurements. In 3 out of 5 eyes that received the drug (vs. 1 of 5 eyes that were administered viscoelastic vehicle) a mild to moderate limbal vascular congestion was noticed, which tended to subside at 60 minutes. In one treated eye the congestion persisted for two hours. At the end of the experiment, the code was broken and the IOP values in control and treated eyes were compared. The results are summarized in Table 2.

Setting [3] is: 60 min after topical administration.
Where [4] appears, read: 120 min after topical administration.

Take `CCC1(C)CC(=O)NC1=O` (centres unmarked) [ethosuximide]: the “IOP, treated eye (T), individual rats” value was 17 mmHg and 16 mmHg and 15 mmHg and 15.3 mmHg and 20.5 mmHg and 22 mmHg in series [1] (30 min after topical 50 ul of 250 mg/0.2 ml ethosuximide solution); 21.3 mmHg (2×) and 30 mmHg and 18 mmHg and 14.6 mmHg in series [1] (setting [3]); 22 mmHg and 17 mmHg and 19 mmHg and 20.5 mmHg and 20.2 mmHg in series [1] (setting [4]). The “IOP, treated eye (T), Average X” value in series [1] (30 min after topical administration) came out at 17.6 mmHg; in series [1] (setting [3]), 21.0 mmHg; in series [1] (setting [4]), 19.7 mmHg. Besides, the “eyes with mild to moderate limbal vascular congestion” value in series [1] (rat eyes that received the drug (vs. 1 of 6 vehicle eyes), tended to subside at 60 minutes) is reported as 2 out of 6; in series [2] (rabbit eyes that received the drug (vs. 1 of 5 vehicle eyes), tended to subside at 60 minutes) it was 3 out of 5. In addition, the “IOP, treated eye (T), individual rabbits” value in series [2] (0.5 hour after topical 50 μl of 250 mg/0.2 ml ethosuximide solution) was 17.3 mmHg and 18.3 mmHg and 16.3 mmHg and 19.7 mmHg and 20.0 mmHg; in series [2] (1 hour after topical administration), 12.8 mmHg and 16.0 mmHg and 15.0 mmHg and 19.7 mmHg and 18.5 mmHg; in series [2] (2 hours after topical administration), 17.3 mmHg and 20.0 mmHg and 19.6 mmHg and 16.3 mmHg and 19.8 mmHg; in series [2] (4 hours after topical administration), 15.5 mmHg and 15.8 mmHg and 13.0 mmHg and 12.5 mmHg and 17.5 mmHg; in series [2] (6 hours after topical administration) it was 19.5 mmHg and 20.0 mmHg and 13.5 mmHg and 19.4 mmHg and 16.0 mmHg. Moreover, the “IOP, treated eye (T), Mean” value was 18.3 mmHg in series [2] (0.5 hour, rabbits); 16.0 mmHg in series [2] (1 hour, rabbits); 18.6 mmHg in series [2] (2 hours, rabbits); 14.9 mmHg in series [2] (4 hours, rabbits); 17.7 mmHg in series [2] (6 hours, rabbits). Also, the “Δ IOP, difference in mean IOP (T − C)” value in series [2] (1 hour, p .557) was −0.6 mmHg; in series [2] (6 hours, p .920) it was “+0.1 mmHg”. The “Δ IOP vs t = o, mean IOP of treated eyes” value in series [2] (2 hours versus baseline, p .420) is −1.4 mmHg; in series [2] (6 hours versus baseline, p .404), −2.3 mmHg. Also, the “treated eyes in which the congestion persisted for two hours” value in series [2] (rabbits) is given as “one”.
